# Laboratory results from patent publication US11938121B2, “Treatment of infections and biofilm formation using a cellulose synthase inhibitor” (Purdue Research Foundation, priority 2020, dated 2024).
# Biological target: T1, YFP-AtCESA6 (Arabidopsis thaliana, UniProt Q94JQ6)
# T1 construct: expressed in transfected cells; host or cells: transgenic Arabidopsis thaliana YFP-AtCESA6 seedlings (total protein extract for DARTS; root epidermal cells for imaging)
# T1 sequence (Q94JQ6 1-1084): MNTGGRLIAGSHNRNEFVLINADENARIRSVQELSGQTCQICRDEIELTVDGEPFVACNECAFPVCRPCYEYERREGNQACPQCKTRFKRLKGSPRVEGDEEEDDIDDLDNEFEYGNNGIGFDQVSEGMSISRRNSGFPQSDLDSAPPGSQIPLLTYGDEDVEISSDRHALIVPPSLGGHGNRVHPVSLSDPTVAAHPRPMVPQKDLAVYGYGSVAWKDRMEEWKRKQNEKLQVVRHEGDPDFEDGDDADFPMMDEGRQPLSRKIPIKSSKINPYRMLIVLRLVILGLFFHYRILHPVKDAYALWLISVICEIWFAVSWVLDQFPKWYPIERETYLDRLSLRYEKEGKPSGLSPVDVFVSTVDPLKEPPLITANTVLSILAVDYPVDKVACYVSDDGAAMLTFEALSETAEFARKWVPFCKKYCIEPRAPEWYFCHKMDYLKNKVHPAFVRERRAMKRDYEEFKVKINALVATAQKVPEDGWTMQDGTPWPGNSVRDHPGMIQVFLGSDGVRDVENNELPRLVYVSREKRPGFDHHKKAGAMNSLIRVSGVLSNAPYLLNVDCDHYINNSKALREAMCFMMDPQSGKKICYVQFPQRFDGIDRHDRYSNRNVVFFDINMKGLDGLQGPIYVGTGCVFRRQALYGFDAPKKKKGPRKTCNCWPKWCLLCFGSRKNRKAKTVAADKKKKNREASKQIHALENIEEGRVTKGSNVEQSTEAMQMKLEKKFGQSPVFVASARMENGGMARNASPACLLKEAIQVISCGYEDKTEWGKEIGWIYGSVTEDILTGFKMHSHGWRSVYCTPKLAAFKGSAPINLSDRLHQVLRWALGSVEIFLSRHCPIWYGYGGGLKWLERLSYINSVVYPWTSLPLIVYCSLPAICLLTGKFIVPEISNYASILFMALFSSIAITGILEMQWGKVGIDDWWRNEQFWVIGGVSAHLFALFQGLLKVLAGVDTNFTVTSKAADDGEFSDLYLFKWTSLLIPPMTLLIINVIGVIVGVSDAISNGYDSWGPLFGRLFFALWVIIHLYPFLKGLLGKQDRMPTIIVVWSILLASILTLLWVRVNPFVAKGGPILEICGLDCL
# T1 sequence (O48946 1-1081 partner): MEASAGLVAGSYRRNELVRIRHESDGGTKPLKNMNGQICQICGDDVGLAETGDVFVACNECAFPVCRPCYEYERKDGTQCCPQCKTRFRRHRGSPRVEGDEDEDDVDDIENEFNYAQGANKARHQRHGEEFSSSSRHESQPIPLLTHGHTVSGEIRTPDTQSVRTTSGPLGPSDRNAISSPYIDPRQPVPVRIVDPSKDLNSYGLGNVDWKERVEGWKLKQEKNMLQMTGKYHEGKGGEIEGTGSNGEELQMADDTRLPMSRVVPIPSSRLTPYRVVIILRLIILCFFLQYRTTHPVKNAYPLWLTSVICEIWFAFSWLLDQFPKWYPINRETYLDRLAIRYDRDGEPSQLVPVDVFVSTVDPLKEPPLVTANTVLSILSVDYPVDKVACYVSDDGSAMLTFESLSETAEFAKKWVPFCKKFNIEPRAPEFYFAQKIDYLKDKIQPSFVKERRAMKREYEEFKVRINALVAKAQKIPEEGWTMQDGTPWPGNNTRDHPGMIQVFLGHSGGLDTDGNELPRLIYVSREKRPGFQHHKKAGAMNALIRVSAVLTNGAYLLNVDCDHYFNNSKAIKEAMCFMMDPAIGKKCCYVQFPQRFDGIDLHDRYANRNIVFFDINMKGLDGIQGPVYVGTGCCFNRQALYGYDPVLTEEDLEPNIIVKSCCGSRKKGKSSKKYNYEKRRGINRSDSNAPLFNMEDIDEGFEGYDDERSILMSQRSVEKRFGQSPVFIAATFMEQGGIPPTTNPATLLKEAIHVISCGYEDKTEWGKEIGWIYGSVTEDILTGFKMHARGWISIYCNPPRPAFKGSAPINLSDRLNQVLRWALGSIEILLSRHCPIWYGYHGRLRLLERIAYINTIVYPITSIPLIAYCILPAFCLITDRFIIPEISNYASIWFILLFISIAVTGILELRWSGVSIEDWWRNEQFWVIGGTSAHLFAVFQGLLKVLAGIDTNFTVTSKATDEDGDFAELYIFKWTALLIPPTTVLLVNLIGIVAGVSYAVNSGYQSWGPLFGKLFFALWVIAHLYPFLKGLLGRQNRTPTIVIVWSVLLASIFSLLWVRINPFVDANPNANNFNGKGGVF
# T1 sequence (Q941L0 1-1065 partner): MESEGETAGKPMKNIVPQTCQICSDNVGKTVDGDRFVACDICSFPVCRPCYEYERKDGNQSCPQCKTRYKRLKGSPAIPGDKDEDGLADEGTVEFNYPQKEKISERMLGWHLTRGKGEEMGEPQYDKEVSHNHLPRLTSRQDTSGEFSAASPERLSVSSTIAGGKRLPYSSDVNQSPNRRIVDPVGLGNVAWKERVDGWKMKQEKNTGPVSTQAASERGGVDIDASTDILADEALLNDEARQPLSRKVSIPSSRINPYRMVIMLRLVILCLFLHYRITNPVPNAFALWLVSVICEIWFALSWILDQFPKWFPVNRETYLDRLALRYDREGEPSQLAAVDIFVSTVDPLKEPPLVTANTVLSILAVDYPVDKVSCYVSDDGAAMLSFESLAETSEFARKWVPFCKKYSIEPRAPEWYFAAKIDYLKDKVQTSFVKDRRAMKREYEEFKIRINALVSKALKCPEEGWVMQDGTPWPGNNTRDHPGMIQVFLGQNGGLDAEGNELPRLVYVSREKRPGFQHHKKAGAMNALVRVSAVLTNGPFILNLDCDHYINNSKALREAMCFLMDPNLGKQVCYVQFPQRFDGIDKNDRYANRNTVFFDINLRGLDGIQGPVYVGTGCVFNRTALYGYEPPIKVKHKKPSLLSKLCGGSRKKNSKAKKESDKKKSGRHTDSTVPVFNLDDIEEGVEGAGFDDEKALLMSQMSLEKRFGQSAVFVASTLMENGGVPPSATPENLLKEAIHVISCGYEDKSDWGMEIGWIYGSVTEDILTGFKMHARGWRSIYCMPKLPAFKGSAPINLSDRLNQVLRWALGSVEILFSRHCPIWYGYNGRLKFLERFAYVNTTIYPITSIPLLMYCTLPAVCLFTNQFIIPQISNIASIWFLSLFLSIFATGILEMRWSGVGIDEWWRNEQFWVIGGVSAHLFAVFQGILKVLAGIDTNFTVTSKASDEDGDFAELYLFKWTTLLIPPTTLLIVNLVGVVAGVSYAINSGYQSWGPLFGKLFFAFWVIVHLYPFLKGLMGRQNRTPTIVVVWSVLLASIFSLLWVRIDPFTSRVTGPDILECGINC
# Test: DARTS assay
# Type: binding
# Conditions: total protein from YFP-AtCESA6 seedlings, vs DMSO
# Experimental: To further validate that ES20-1 targets AtCESA6, we looked for a direct interaction between ES20-1 and AtCESA6. We performed a DARTS (Drug Affinity Responsive Target Stability) assay to test the interaction of ES20-1 with endogenous AtCESA6. We incubated total protein from YFP-AtCESA6 seedlings with either DMSO (as a control) or ES20-1 and digested the mixtures with protease. […] We also purified the central cytosolic domain of AtCESA6 (CESA6c) from E. coli (FIG. 3J) and performed a Microscale thermophoresis (MST) assay to test its interaction with ES20-1. […] We purified AtCESA6 central cytoplasmic domain carrying missense mutation P595S (CESA6c^P595S) and tested its interaction with ES20 and ES20-1 (3O).
# To test for an interaction between AtCESA6 and ES20-1 using a DARTS assay, 7-day-old YFP-AtCESA6 light-grown seedlings were harvested and ground to a powder in liquid nitrogen. The ground tissue was homogenized in lysis buffer (50 mM Tris-HCl, pH 7.5, 150 mM NaCl, 0.5% Triton X-100, 2 mM DTT, one tablet/50 mL EDTA free Pierce protease inhibitor [Thermo Fisher]) at 2:1 ratio (2 mL buffer: 1 g tissue). […] The X-ray films were scanned, and the signal intensity of each protein band was quantified after background subtraction using Image J. The relative intensities were quantified by dividing the values in ES20-1-treated samples by the values in DMSO-treated samples.
smiles,measurement,value
Cc1ccccc1C(=O)NNC(=S)NC(=O)c1ccccc1 [ES20-1],interaction with endogenous AtCESA6 (protection from protease),interacts with endogenous AtCESA6 and protects it from degradation
